Like-named read-outs stand apart in the source and are kept apart here.
Columns and labels:
[1] = system: HS 578T; experiment: NCI 60 Cell Line Panel growth inhibition; assay type: cell-based, human; conditions: Breast cancer, TP53 null/mutant
Source text: (§1) The NCI-60 Cell Line Panel was assembled by the National Cancer Institute as an in vitro anticancer drug screen. The panel comprises human cancer cell lines representing nine different tissues of origin: breast, colon, central nervous system, renal, lung, melanoma, ovarian, prostate, and hematogenous. […] See, e.g., Leroy et al. “Analysis of TP53 Mutation Status in Human Cancer Cell Lines: a Reassesment” Hum Mutat 2014 35(6): 756-765.

[2] = system: NCI-H23; experiment: NCI 60 Cell Line Panel growth inhibition; assay type: cell-based, human; conditions: NCI-H23, Lung-NSCL, TP53 null/mutant
Source text: as §1

[3] = system: SF-268; experiment: NCI 60 Cell Line Panel growth inhibition; assay type: cell-based, human; conditions: SF-268, CNS cancer, TP53 null/mutant
Source text: as §1

[4] = system: OVCAR-3; experiment: NCI 60 Cell Line Panel growth inhibition; assay type: cell-based, human; conditions: OVCAR-3, Ovarian cancer, TP53 null/mutant
Source text: as §1

[5] = system: RXF 393; experiment: NCI 60 Cell Line Panel growth inhibition; assay type: cell-based, human; conditions: RXF 393, Renal cancer, TP53 null/mutant
Source text: as §1

[6] = system: KM12; experiment: NCI 60 Cell Line Panel growth inhibition; assay type: cell-based, human; conditions: KM12, Colon cancer, TP53 null/mutant
Source text: as §1

[7] = system: SK-OV-3; experiment: NCI 60 Cell Line Panel growth inhibition; assay type: cell-based, human; conditions: SK-OV-3, Ovarian cancer, TP53 null/mutant
Source text: as §1

[8] = system: PC-3; experiment: NCI 60 Cell Line Panel growth inhibition; assay type: cell-based, human; conditions: PC-3, Prostate cancer, TP53 null/mutant
Source text: as §1

[9] = system: BT-549; experiment: NCI 60 Cell Line Panel growth inhibition; assay type: cell-based, human; conditions: BT-549, Breast cancer, TP53 null/mutant
Source text: as §1

[10] = system: SN12C; experiment: NCI 60 Cell Line Panel growth inhibition; assay type: cell-based, human; conditions: Renal cancer, TP53 null/mutant
Source text: as §1

[11] = system: MDA-MB-231; experiment: NCI 60 Cell Line Panel growth inhibition; assay type: cell-based, human; conditions: MDA-MB-231, Breast cancer, TP53 null/mutant
Source text: as §1

[12] = system: MOLT-4; experiment: NCI 60 Cell Line Panel growth inhibition; assay type: cell-based, human; conditions: MOLT-4, Leukemia, TP53 null/mutant
Source text: as §1

[13] = system: K-562; experiment: NCI 60 Cell Line Panel growth inhibition; assay type: cell-based, human; conditions: K-562, Leukemia, TP53 null/mutant
Source text: as §1

[14] = NUC013 administered IV to mice
[15] = system: HL-60 (leukemia, TP null); conditions: HL-60 nude mice
[16] = system: NCI 60 Cell Line Panel; experiment: NCI 60 Cell Line Panel, summary by TP53 status (2×2 contingency tables); assay type: cell-based, human
Source text: as §1

[17] = system: LoVo (colon cancer, TP WT); experiment: Xenograft model, nude mice implanted with LoVo; conditions: for mean tumor volumes compared to saline control: study days 9 through 51, FIG. 3B
[18] = in vivo; conditions: nude, mouse, iv
[19] = system: CFPAC-1; experiment: Growth inhibition of pancreatic cancer cell line CFPAC-1; assay type: cell-based; conditions: Homo sapiens
[20] = Pharmacokinetics after SC administration of NUC041 in phospholipid gel depot to mice; conditions: analyte in plasma following SC administration of NUC041 (100 mg/kg) to mice
[21] = system: HeLa cells; experiment: Nucleotide concentrations in HeLa cell extracts by HPLC (RNR inhibition); assay type: cell-based; conditions: 50 μM, 16 h incubation
Source text: The more common approach is to synthesize a nucleoside diphosphate and then determine whether it inhibits RNR or p53R2. […] Nucleic Acids Research. […] The other approach is to expose cells in tissue culture to the drug and then attempt to determine whether deoxynucleotide synthesis is inhibited when compared to control cells. Measurement of deoxynucleotides may be done by radioimmunoassay or by HPLC. The disadvantage of a radioimmunoassay is that it can only measure a single deoxynucleotide triphosphate (dNTP) at a time and typically requires a tritiated nucleotide, but it is the preferred method for measuring dCTP [Piall E M, Aherne G W, Marks V. The quantitative determination of 2′-deoxycytidine-5′ triphosphate in cell extracts by radioimmunoassay. Anal Biochem. 1986; 154(1):276-281 incorporated herein by reference in its entirety]. On the other hand, HPLC can measure multiple nucleotides without requiring radiolabeling, but has been noted to quantitate poorly dC nucleotides, possibly as an artifact of an influx of dCTP from the medium [Bianchi V, Pontis E, Reichard P. Changes of deoxyribonucleoside triphosphate pools induced by hydroxyurea and their relation to DNA synthesis. J Biol Chem. 1986; 261(34): 16037-16042 incorporated herein by reference in its entirety]. This approach was used to determine RNR inhibition by NUC013.
Briefly, HeLa cells ([…]) were grown in the presence or absence of drug, in this case gemcitabine or NUC013. At the end of a 16 h incubation, the medium was aspirated, cells monolayers washed twice with PBS, and used for nucleotide extraction. The nucleotides were extracted from cell monolayers by the addition of ice-cold 80% acetonitrile (ACN) for 1 h. The extracts were centrifuged to remove cellular debris and loaded on a SAX column (100 mg, Supelco) pre-conditioned with methanol, water and ACN. Once the sample was completely effused, the cartridge was washed with 3 ml 80% ACN and 3 ml water and eluted with 1M KCl. The eluent was filtered through a 0.45 μm filter membrane (Roth) and analyzed by HPLC. Peak identification of the different nucleoside mono-, di-, and triphosphates, was made from their characteristic UV absorption spectra and retention times compared with those of a mixture of standards run immediately before cell extracts. The area of individual peaks was measured using ChemStation software (Agilent).

[22] = TP53 (WT) cell lines of NCI 60 cell panel
[23] = TP53 (null/mutant) cell lines of NCI 60 cell panel

For `Nc1ncn([C@@H]2O[C@H](CO)[C@@H](O)C2(F)F)c(=O)n1` [NUC013, 4-amino-1-((2R,4R,5R)-3,3-difluoro-4-hydroxy-5-(hydroxymethyl)tetrahydrofuran-2-yl)-1,3,5-triazin-2(1H)-one], the “Growth (%) at 10 μM” value [1] was 90.37%, the “Growth (%) at 10 μM” value [2] was 30.61% and the “Growth (%) at 10 μM” value [3] was 65.39%. For the same molecule, the “Growth (%) at 10 μM” value [4] was 70.56%, the “Growth (%) at 10 μM” value [5] was 44.97% and the “Growth (%) at 10 μM” value [6] was 61.18%. The “Growth (%) at 10 μM” value [7] was 71.09%, the “Growth (%) at 10 μM” value [8] was 63.57% and the “Growth (%) at 10 μM” value [9] was 53.63%. For the same molecule, the “Growth (%) at 10 μM” value [10] was 51.65%, the “Growth (%) at 10 μM” value [11] was 79.98% and the “Growth (%) at 10 μM” value [12] was 35.63%. The “Growth (%) at 10 μM” value [13] was 65.66%, the half-life [14] was 20 min and the “animals removed from the study for death or moribund” value ([15]; 5.8 mg/kg) was “no animals removed from the study for death or moribund”. The “tumor weights vs saline control” value ([15]; 5.8 mg/kg) was “not significantly different”, the “hazard ratio (HR) vs saline control (death, ulcerated tumor or tumor >4 g)” value ([15]; 5.8 mg/kg (equimolar to decitabine 5 mg/kg)) was 0.46 and the “hazard ratio (HR) vs saline control (death, ulcerated tumor or tumor >4 g)” value ([15]; 20 mg/kg) was 0.26. For the same molecule, the “tumor volume vs saline control” value ([15]; 20 mg/kg, study days 18 through 28, FIG. 3A) was “significant decreases”, the inhibition at 10 µM ([16]; Homo sapiens, 60 cell, 10 μM, read-out: Inhibition of growth of hematogenous tumor cell lines) was greater than 50% and the “Number of cell lines with >50% growth inhibition at 10 μM” value [16, 22] was 11. The “Number of cell lines with ≤50% growth inhibition at 10 μM” value [16, 22] was 4, the “Number of cell lines with >50% growth inhibition at 10 μM” value [16, 23] was 13 and the “Number of cell lines with ≤50% growth inhibition at 10 μM” value [16, 23] was 27. The “survival compared to saline controls” value ([17]; 5.8 mg/kg) was “no difference in survival”, the “mean tumor weight lower compared to controls” value ([17]; 5.8 mg/kg, 8 days following the end of treatment) was 24.3% and the “mean tumor volumes compared to saline control” value ([17]; 20 mg/kg) was “significantly lower”. The “mean tumor volumes compared to saline control” value ([17]; 40 mg/kg) was “significantly lower”, the MTD at 3 weeks [18] was greater than 120 mg/kg and the GI50 [19] was 53.8 µM. For the same molecule, the “AUClast (area under the plasma concentration versus time curve from 0 to last quantifiable sampling time)” value [20] was 1939 ng·h/mL, the ADP [21] was 13,845 and the ATP [21] was 21,335. The CTP [21] was 1,279, the GTP [21] was 2,006 and the UTP [21] was 4,070. For the same molecule, the “dATP, peak area, AU” value [21] was 10.2 AU, the “dGDP, peak area, AU” value [21] was 5.6 AU and the “dTDP, peak area, AU” value [21] was 18.65 AU. The “dUTP, peak area, AU” value [21] was 8.8 AU.
